Data taken from patent publication US8691812B2, “Pesticidal composition and its use” (Sumitomo Chemical Company, Limited, priority 2010, dated 2014).

Test system: Rhizoctonia solani
Assay: Soybean seed treatment test in soil contaminated by Rhizoctonia solani (disease control efficacy)
Type: in vivo, Rhizoctonia solani on soybean (variety: Natto shoryu)
Details: carboxamide compound alone, 0.2 g/100 kg of seeds; soybean seed application; cultivated 20 days in soil contaminated by Rhizoctonia solani; efficacy vs non-treated plot
Description: A cyclohexanone solution (100microL) containing prescribed amount (weight) of a test compound was applied on seeds of soybean (variety : Natto shoryu) (10 g) by using a rotary apparatus for seed treatment (Seed dresser, manufactured by Hans-Ulrich Hege GmbH).
One day after the application, plastic pot was filled with soil contaminated by Rhizoctonia solani, and the seeds treated with the test compounds were seeded in the soil and cultivated in a glass-greenhouse for 20 days (hereinafter referred to as “treated plot”).
Thereafter, the presence of disease caused by Rhizoctonia solani in the young plants which germinated from each seed was observed and disease severity was calculated according to the following calculation formula (1).
On the other hand, seeds of soybean which were not treated as above were cultivated in the same way as above (hereinafter referred to as “non-treated plot”) and the disease severity in “non-treated plot” was calculated in the same way as the above “treated plot”. On the basis of the above severity of disease in “treated plot” and “non-treated plot”, efficacy in the “treated plot” was evaluated according to the following calculation formula (2).
Calculation formula (1): Disease severity (%)=(number of infected young plants/total number of young plants)×100 […]

Compound | efficacy (%)
Cc1nn(C)c(C)c1C(=O)Nc1cccc2c1C(C)CC2(C)C (centres unmarked) [carboxamide compound (5)] | 21.1
CC1CC(C)(C)c2cccc(NC(=O)c3cn(C)nc3C(F)F)c21 (centres unmarked) [carboxamide compound (1)] | 42.1
